Measured values from ChEMBL document CHEMBL5030557, “Tandem Repeat of a Short Human Chemerin-Derived Peptide and Its Nontoxic d-Lysine-Containing Enantiomer Display Broad-Spectrum Antimicrobial and Antitubercular Activities” (J Med Chem, 2021).

System: Mycobacterium tuberculosis variant bovis
Assay: Anti-mycobacterial activity against Mycobacterium bovis assessed as growth inhibition at 16.13 uM relative to control
Assay type: functional

Structure (SMILES) | inhibition at 16.13 µM [%]
CC(C)C[C@H](NC(=O)[C@H](CCCNC(=N)N)NC(=O)CNC(=O)[C@H](CC(C)C)NC(=O)[C@@H](NC(=O)[C@H](CCCCN)NC(=O)[C@@H](NC(=O)[C@H](CC(C)C)NC(=O)[C@H](CCCNC(=N)N)NC(=O)CNC(=O)[C@H](CC(C)C)NC(=O)[C@@H](NC(=O)[C@@H](N)CCCCN)C(C)C)C(C)C)C(C)C)C(=O)N[C@H](C(N)=O)C(C)C | 80
CC(C)C[C@H](NC(=O)[C@H](CCCNC(=N)N)NC(=O)CNC(=O)[C@H](CC(C)C)NC(=O)[C@@H](NC(=O)[C@@H](CCCCN)NC(=O)[C@@H](NC(=O)[C@H](CC(C)C)NC(=O)[C@H](CCCNC(=N)N)NC(=O)CNC(=O)[C@H](CC(C)C)NC(=O)[C@@H](NC(=O)[C@@H](N)CCCCN)C(C)C)C(C)C)C(C)C)C(=O)N[C@H](C(N)=O)C(C)C | 95
